Measured values taken from the NIST ThermoML archive (doi:10.1021/je5001389).
± gives the expanded uncertainty stated by the source.

Experiments:
[1] = DTA
[2] = Molar enthalpy of transition or fusion; settings: DSC

| SMILES | Triple point temperature ([1]; Crystal) [K] | Molar enthalpy of transition or fusion ([2]; Crystal) [kcal/mol] | Triple point temperature ([1]; Crystal 1) [K] | Triple point temperature ([1]; Crystal 2) [K] | Molar enthalpy of transition or fusion ([2]; Crystal 1) [kcal/mol] | Molar enthalpy of transition or fusion ([2]; Crystal 2) [kcal/mol] |
| --- | --- | --- | --- | --- | --- | --- |
| c1ccc(-c2ccccc2)cc1 [biphenyl] | 340.69 ± 0.5 | 4.45 ± 0.136 | – | – | – | – |
| c1ccc2c(c1)oc1ccccc12 [dibenzo[bd]furan] | 353.87 ± 0.5 | 5.33 ± 0.16 | – | – | – | – |
| CCCCCCCCCCCCCCCCCCCCCCCCCC [hexacosane] | – | – | 329.21 ± 0.5 | 326.4 ± 0.5 | 16.3 ± 0.43 | 8.78 ± 0.239 |
